Source: EP1598418A1, “STABILISED COMPOSITION FOR FLUORIMETRIC, COLORIMETRIC OR CHEMOLUMINESCENT ASSAYS, KITS CONTAINING SAME AND PRODUCTION METHOD THEREOF” (BIOTOOLS BIOTECHNOLOGICAL & MEDICAL LABORATORIES, S.A., priority 2003, dated 2004)

Tests used:
[1] = target: avidin (Gallus gallus, UniProt P02701); conditions: avidin/biotin complex; cited from earlier work
[2] = tested on: TaqMan probes; assay: Real-time amplification with desiccated, stabilised reaction mixture with TaqMan probes after storage (Example 2); assay type: biochemical, P. falciparum; conditions: vs fresh mixture
[3] = tested on: FRET probes; assay: Real-time amplification with desiccated, stabilised reaction mixture with FRET probes after storage (Example 1); assay type: biochemical, P. falciparum; conditions: vs fresh mixture
[4] = tested on: reaction mixture with SYBR Green; assay: Real-time amplification with desiccated, stabilised reaction mixture with SYBR Green after storage (Example 5); assay type: biochemical, oncogenic papillomaviruses; conditions: vs fresh mixture
Protocol: To test the efficiency of intercalated fluorophores such as SYBR Green included in desiccated and stabilised reaction mixtures, reaction mixtures were prepared for amplifying a 250 bp fragment corresponding to region E6-E7 of oncogenic papillomaviruses, using the same reagents as described in Example 1. In this case the unit "DNA Engine OPTICON™ 2 System" (MJ Research) was used. […] Also to each phial was added […] of SYBR Green 1 (Molecular probes).
Various tubes were prepared as described above, adding to each the suitable volume of each stabilising mixture shown in Table 1.
In parallel, in order to check the evolution of the activity of the desiccated tubes, DNA samples were amplified using a fresh mixture in the same amplification conditions.
The result of the amplification reaction was analysed in every case by inspecting the fluorescence curve and determining the crossing point, following the instructions of the equipment software, for each reaction tube both fresh and desiccated and stabilised. […] The samples of patients infected with oncogenic HPV gave positive results in every case, while patients infected with non-oncogenic HPV, or not infected with HPV, gave negative results in every case.

[5] = tested on: oligonucleotides chemically modified by including biotin and/or digoxygenin groups; assay: Amplification with desiccated biotin/digoxygenin oligonucleotides and colorimetric ELISA plate assay (Example 7); assay type: biochemical, oncogenic HPV; conditions: vs fresh mixture
Protocol: To do so, 4 oligonucleotides were designed that hybridised with the genome of region E6-E7 of oncogenic HPV species.
To do so, an ELISA microplate with a high-binding capacity to streptoavidin (Biospa) was activated following a standard fixing protocol. Then, after blocking the plate by incubation with gelatine, the amplified products of the stabilising mixtures 1, 2 and 3 described in Example 7.A were analysed by a colorimetry assay according to the following experimental process: • A.- Amplification products using an onligonucleotide marked with digoxygenin (mixture 1 in Example 7.A). The biotinated probe A11 was fixed to the plate and the amplified product was hybridised. […] The amplification product was fixed to the plate with the first biotinilate and then hybridised with the first A12 marked with digoxygenin.

[6] = tested on: Molecular Beacon (MB) probe; assay: Real-time amplification with desiccated, stabilised reaction mixture with Molecular Beacon probe after storage (Example 3); assay type: biochemical, P. falciparum; conditions: vs fresh mixture
[7] = tested on: Anti-digoxygenin antibodies; assay: Colorimetric assay of stabilised proteins immobilised in modified glasses (Example 10.4); assay type: biochemical, P. falciparum; conditions: vs fresh mixture
Protocol: To test the possibility of stabilising proteins that have been previously immobilised in pre-treated glass supports, the usual format of microarray systems, two different alternatives were tested as in the previous experiment.
Approach 1. Stabilisation of supports with previously fixed protein. Anti-digoxygenin antibodies were fixed to glass supports pre-treated with aldehyde. To do so, in each support slide 1 microlitre spots were applied of the solution of each protein at a concentration of 30 ng/µl. The slides with the immobilised protein were then coated with a thin layer of each of the stabilising mixtures and then desiccated in a vacuum oven at 25°C and 50 mbar pressure.
(§1) Approach 2. Fixation to the slides of the protein pre-mixed with the stabilising mixtures. A mixture was prepared of each of the probes with the suitable volumes of the stabilising mixtures described in Table 1. Then the mixtures of protein were applied to the various slides with the fixing conditions indicated for each glass format.
(§2) To test the viability of each slide prepared, a colorimetric assay was performed with formation of precipitate products. To do so, the slides were washed for 5 minutes in PBS 1X at room temperature to eliminate the protective layer.

[8] = tested on: nucleic acids immobilised in modified glasses; assay: Colorimetric assay of stabilised nucleic acids immobilised in modified glasses (Example 10.3); assay type: biochemical, HPV 16; conditions: vs fresh mixture
Protocol: Approach 1. Stabilisation of supports with previously fixed nucleic acids. HPV specific probes were fixed to glass supports pre-treated with polylysiun, aldehyde, epoxy, superepoxy and silane. To do so, in each support slide 1 microlitre spots were applied of the solution of each oligonucleotide at a concentration of 20 µM in the conditions indicated for each glass format. The slides with the immobilised oligonucleotides were then coated with a thin layer of each of the stabilising mixtures and then desiccated in a vacuum oven at 25°C and 50 mbar pressure.
as §1, with “the nucleic acids” for “the protein”, “of oligonucleotides” for “of protein”
as §2, with “layer. Then the slides were incubated in the presence of an amplified and previously denatured HPV 16 product using the probes A11 and A12.” for “layer.”

[9] = tested on: antidigoxygenin antibody; assay: Colorimetry assay of stabilised protein immobilised in ELISA microplates (Example 10.2); assay type: biochemical, HPV; conditions: vs fresh mixture
Protocol: To do so each dimple was incubated with 1µg of antidigoxygenin antibody (Roche).
The amplified product was incubated for 30 minutes in the dimples with the antibody immobilised. The amplified products immobilised in the plate by the union of the digoxygenin group of the amplicons and the immobilised anti-digoxygenin group were analysed by a colorimetric assay. […] The colorimetric reaction was finally analysed by measuring absorption at 415 nm.

[10] = tested on: streptoavidin conjugated with HRP (Str-HRP) and anti-digoxygenin conjugated with alkaline phospatase (anti-DIG-AP); assay: Colorimetric ELISA plate activity test of desiccated, stabilised conjugates (Example 8); assay type: biochemical, HPV 16; conditions: vs fresh mixture
Protocol: In 0.2 ml amplification tubes were added 100 microlitres of a 1/250 dilution in a blocking solution of the conjugate Str-HRP (Biospa). In parallel, 0.2 ml phials were prepared in which 100 microlitres were added of a 1/250 dilution in a blocking solution of anti-DIG-AP (Sigma).
For the activity assay of the conjugate anti-DIG-AP an ELISA plate was used in which the dimples had been previously coated with streptoavidin. For the activity assay of conjugate Str-HRP a plate was used instead with dimples previously coated with anti-DIG antibodies. The amplified products were incubated in each plate to allow the immobilisation of the amplicons in the plate.

[11] = tested on: nucleic acids immobilised in ELISA microplates; assay: Amplification and colorimetric detection with stabilised nucleic acids immobilised in ELISA microplates (Example 10.1); conditions: vs fresh mixture
[12] = tested on: Scorpion probes; assay: Real-time amplification with desiccated, stabilised reaction mixture with Scorpion probes after storage (Example 4); assay type: biochemical, M. tuberculosis; conditions: vs fresh mixture
[13] = tested on: DTCS Quick Start Master Mix; assay: Sequencing reaction with desiccated, stabilised mixture with fluorescent terminators after storage (Example 6); assay type: biochemical, human papillomavirus; conditions: vs fresh mixture
Protocol: To test the possibility of gelling reaction mixtures for sequencing nucleic acids the CEQ 200 Dye Terminator Cycle Sequencing (DTCS) Quick Start Kit (Beckman Coulter) was employed, which uses a PCR sequencing system in a single tube by incorporating four different fluorescent terminators. The sequencing reactions were later analysed in a CEQ 2000 XL DNA Analysis System (Beckman Coulter) capillary electrophoresis automatic sequencing system.
Reaction mixtures were prepared containing 4 microlitres of DTCS Quick Start Master Mix, 1 microlitre of universal primer M13-17 and the suitable volume of each stabilising mixture shown in Table 1.
In parallel, in order to check the evolution of the activity of the desiccated and stabilised tubes, the same plasmid was sequenced using a fresh sequencing mixture in standard conditions. Finally, the sequencing reactions were analysed in the CEQ 200XL system following the supplier's instructions.

[14] = tested on: probes marked with biotin or digoxygenin groups; assay: Synthesis of digoxygenin-marked probes with desiccated mixtures and molecular hybridisation test (Example 9); conditions: vs fresh mixture

Chain of avidin (P02701 25-152): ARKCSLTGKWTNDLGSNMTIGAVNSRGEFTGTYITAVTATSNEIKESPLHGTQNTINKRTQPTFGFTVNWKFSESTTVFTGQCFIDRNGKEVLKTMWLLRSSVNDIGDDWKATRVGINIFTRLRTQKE

Row | SMILES | activity of stabilising mixtures ([2]; conserved at T 4 °C) | activity of stabilising mixtures ([3]; conserved at T 4 °C) | activity of stabilising mixtures ([5]; conserved at T 4 °C) | activity of stabilising mixtures ([6]; conserved at T 4 °C) | activity of stabilising mixtures ([7]; conserved at T 4 °C) | activity of stabilising mixtures ([8]; conserved at T 4 °C) | activity of stabilising mixtures ([9]; conserved at T 4 °C) | activity of stabilising mixtures ([11]; conserved at T 4 °C) | activity of stabilising mixtures ([13]; conserved at T 4 °C) | activity of stabilising mixtures ([14]; conserved at T 4 °C) | activity of stabilising mixtures ([4]; conserved at T 4 °C) | activity of stabilising mixtures ([10]; conserved at T 4 °C) | activity of stabilising mixtures ([12]; conserved at T 4 °C) | further results
1 | O=C(O)CCCC[C@@H]1SC[C@@H]2NC(=O)N[C@@H]21 [biotin, Biotin] | – | – | – | – | – | – | – | – | – | – | – | – | – | dissociation energy [1]: 21 kcal/mol
2 | OC[C@H]1O[C@H](O[C@H]2O[C@H](CO)[C@@H](O)[C@H](O)[C@H]2O)[C@H](O)[C@@H](O)[C@@H]1O [Trehalose] | ++ (++, positive with 50-90% of the activity of the fresh mixture) | ++ (++, positive with 50-90% of the activity of the fresh mixture) | ++ (++, positive with 50-90% of the activity of the fresh mixture) | ++ (++, positive with 50-90% of the activity of the fresh mixture) | ++ (++, positive with 50-90% of the activity of the fresh mixture) | ++ (++, positive with 50-90% of the activity of the fresh mixture) | ++ (++, positive with 50-90% of the activity of the fresh mixture) | ++ (++, positive with 50-90% of the activity of the fresh mixture) | ++ (++, positive with 50-90% of the activity of the fresh mixture) | ++ (++, positive with 50-90% of the activity of the fresh mixture) | – | – | – | activity of stabilising mixtures ([2]; conserved at T 25 °C): + (+, weak positive, under 50% of the activity of the fresh mixture); activity of stabilising mixtures ([3]; conserved at T 25 °C): + (+, weak positive, under 50% of the activity of the fresh mixture); activity of stabilising mixtures ([4]; conserved at T 25 °C): + (+, weak positive, under 50% of the activity of the fresh mixture); activity of stabilising mixtures ([5]; conserved at T 25 °C): + (+, weak positive, under 50% of the activity of the fresh mixture); activity of stabilising mixtures ([6]; conserved at T 25 °C): + (+, weak positive, under 50% of the activity of the fresh mixture); activity of stabilising mixtures ([7]; conserved at T 25 °C): + (+, weak positive, under 50% of the activity of the fresh mixture); activity of stabilising mixtures ([8]; conserved at T 25 °C): + (+, weak positive, under 50% of the activity of the fresh mixture); activity of stabilising mixtures ([9]; conserved at T 25 °C): + (+, weak positive, under 50% of the activity of the fresh mixture); activity of stabilising mixtures ([10]; conserved at T 25 °C): + (+, weak positive, under 50% of the activity of the fresh mixture); activity of stabilising mixtures ([11]; conserved at T 25 °C): + (+, weak positive, under 50% of the activity of the fresh mixture); activity of stabilising mixtures ([12]; conserved at T 25 °C): + (+, weak positive, under 50% of the activity of the fresh mixture); activity of stabilising mixtures ([13]; conserved at T 25 °C): + (+, weak positive, under 50% of the activity of the fresh mixture); activity of stabilising mixtures ([14]; conserved at T 25 °C): + (+, weak positive, under 50% of the activity of the fresh mixture)
3 | NCCCC[C@H](N)C(=O)O [Lysine] | + (+, weak positive, under 50% of the activity of the fresh mixture) | + (+, weak positive, under 50% of the activity of the fresh mixture) | + (+, weak positive, under 50% of the activity of the fresh mixture) | + (+, weak positive, under 50% of the activity of the fresh mixture) | + (+, weak positive, under 50% of the activity of the fresh mixture) | + (+, weak positive, under 50% of the activity of the fresh mixture) | + (+, weak positive, under 50% of the activity of the fresh mixture) | + (+, weak positive, under 50% of the activity of the fresh mixture) | + (+, weak positive, under 50% of the activity of the fresh mixture) | + (+, weak positive, under 50% of the activity of the fresh mixture) | + (+, weak positive, under 50% of the activity of the fresh mixture) | + (+, weak positive, under 50% of the activity of the fresh mixture) | + (+, weak positive, under 50% of the activity of the fresh mixture) | –
4 | OC[C@H]1O[C@H](OC[C@H]2O[C@H](O[C@]3(CO)O[C@H](CO)[C@@H](O)[C@@H]3O)[C@H](O)[C@@H](O)[C@@H]2O)[C@H](O)[C@@H](O)[C@H]1O [Rafinose] | + (+, weak positive, under 50% of the activity of the fresh mixture) | + (+, weak positive, under 50% of the activity of the fresh mixture) | + (+, weak positive, under 50% of the activity of the fresh mixture) | + (+, weak positive, under 50% of the activity of the fresh mixture) | + (+, weak positive, under 50% of the activity of the fresh mixture) | + (+, weak positive, under 50% of the activity of the fresh mixture) | + (+, weak positive, under 50% of the activity of the fresh mixture) | + (+, weak positive, under 50% of the activity of the fresh mixture) | + (+, weak positive, under 50% of the activity of the fresh mixture) | + (+, weak positive, under 50% of the activity of the fresh mixture) | + (+, weak positive, under 50% of the activity of the fresh mixture) | + (+, weak positive, under 50% of the activity of the fresh mixture) | + (+, weak positive, under 50% of the activity of the fresh mixture) | –
